From PMC9653409, “Generative deep learning enables the discovery of a potent and selective RIPK1 inhibitor” (Nature Communications, 2022)

Key:
Assay in all cases: Kinase inhibitory activity profiling of RI-962@10 µM (406 kinases, Eurofins)
Format in all cases: biochemical
[1] = target: panel of human kinases (kinase named in endpoint) (Homo sapiens, UniProt O43293); conditions: 10 µM; read-out: Activity (%), ZIPK(h)
Summary of the method: (§1)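 Radiometric filter-binding kinase assays: enzyme preincubated 15 min with compound in 8 mM MOPS pH 7.0, 0.2 mM EDTA, 250 μM peptide substrate, 10 mM magnesium acetate, 10 μM [γ-33P]-ATP. Reaction started with Mg/ATP, run 40 min at room temperature, stopped with phosphoric acid; 33P incorporation read by scintillation counting. Other kinases by similar protocols.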

[2] = target: panel of human kinases (kinase named in endpoint) (Homo sapiens, UniProt O75460); conditions: 10 µM; read-out: Activity (%), IRE1(h)
Summary of the method: as §1

[3] = target: panel of human kinases (kinase named in endpoint) (Homo sapiens, UniProt O94806); conditions: 10 µM; read-out: Activity (%), PKD3(h)
Summary of the method: as §1

[4] = target: panel of human kinases (kinase named in endpoint) (Homo sapiens, UniProt P00519, Q252H); conditions: 10 µM; read-out: Activity (%), Abl (Q252H) (h)
Summary of the method: as §1

[5] = target: panel of human kinases (kinase named in endpoint) (Homo sapiens, UniProt P00533); conditions: 10 µM; read-out: Activity (%), EGFR(h)
Summary of the method: as §1

[6] = target: panel of human kinases (kinase named in endpoint) (Homo sapiens, UniProt P04629); conditions: 10 µM; read-out: Activity (%), TrkA(h)
Summary of the method: as §1

[7] = target: panel of human kinases (kinase named in endpoint) (Homo sapiens, UniProt P17252); conditions: 10 µM; read-out: Activity (%), PKCα(h)
Summary of the method: as §1

[8] = target: panel of human kinases (kinase named in endpoint) (Homo sapiens, UniProt P21709); conditions: 10 µM; read-out: Activity (%), EphA1(h)
Summary of the method: as §1

[9] = target: panel of human kinases (kinase named in endpoint) (Homo sapiens, UniProt P34947); conditions: 10 µM; read-out: Activity (%), GRK5(h)
Summary of the method: as §1

[10] = target: panel of human kinases (kinase named in endpoint) (Homo sapiens, UniProt P49759); conditions: 10 µM; read-out: Activity (%), CLK1(h)
Summary of the method: as §1

[11] = target: panel of human kinases (kinase named in endpoint) (Homo sapiens, UniProt P51817); conditions: 10 µM; read-out: Activity (%), PrKX(h)
Summary of the method: as §1

[12] = target: panel of human kinases (kinase named in endpoint) (Homo sapiens, UniProt P53667); conditions: 10 µM; read-out: Activity (%), LIMK1(h)
Summary of the method: as §1

[13] = target: panel of human kinases (kinase named in endpoint) (Homo sapiens, UniProt P78368); conditions: 10 µM; read-out: Activity (%), CK1γ2(h)
Summary of the method: as §1

[14] = target: panel of human kinases (kinase named in endpoint) (Homo sapiens, UniProt Q04912); conditions: 10 µM; read-out: Activity (%), Ron(h)
Summary of the method: as §1

[15] = target: panel of human kinases (kinase named in endpoint) (Homo sapiens, UniProt Q06187); conditions: 10 µM; read-out: Activity (%), BTK(h)
Summary of the method: as §1

[16] = target: panel of human kinases (kinase named in endpoint) (Homo sapiens, UniProt Q13557); conditions: 10 µM; read-out: Activity (%), CaMKIIδ(h)
Summary of the method: as §1

[17] = target: panel of human kinases (kinase named in endpoint) (Homo sapiens, UniProt Q15119); conditions: 10 µM; read-out: Activity (%), PDHK2(h)
Summary of the method: as §1

[18] = target: panel of human kinases (kinase named in endpoint) (Homo sapiens, UniProt Q15418); conditions: 10 µM; read-out: Activity (%), Rsk1(h)
Summary of the method: as §1

[19] = target: panel of human kinases (kinase named in endpoint) (Homo sapiens, UniProt Q16832); conditions: 10 µM; read-out: Activity (%), DDR2(h)
Summary of the method: as §1

[20] = target: panel of human kinases (kinase named in endpoint) (Homo sapiens, UniProt Q5VT25); conditions: 10 µM; read-out: Activity (%), MRCKα(h)
Summary of the method: as §1

[21] = target: panel of human kinases (kinase named in endpoint) (Homo sapiens, UniProt Q86UX6); conditions: 10 µM; read-out: Activity (%), STK32C(h)
Summary of the method: as §1

[22] = target: panel of human kinases (kinase named in endpoint) (Homo sapiens, UniProt Q8IYT8); conditions: 10 µM; read-out: Activity (%), ULK2(h)
Summary of the method: as §1

[23] = target: panel of human kinases (kinase named in endpoint) (Homo sapiens, UniProt Q8TDX7); conditions: 10 µM; read-out: Activity (%), NEK7(h)
Summary of the method: as §1

[24] = target: panel of human kinases (kinase named in endpoint) (Homo sapiens, UniProt Q96L34); conditions: 10 µM; read-out: Activity (%), MARK4(h)
Summary of the method: as §1

[25] = target: panel of human kinases (kinase named in endpoint) (Homo sapiens, UniProt Q96NX5); conditions: 10 µM; read-out: Activity (%), CaMKIγ(h)
Summary of the method: as §1

[26] = target: panel of human kinases (kinase named in endpoint) (Homo sapiens, UniProt Q9HC98); conditions: 10 µM; read-out: Activity (%), NEK6(h)
Summary of the method: as §1

Chain of panel of human kinases (kinase named in endpoint) (Homo sapiens, UniProt Q16832) (Q16832 22-855): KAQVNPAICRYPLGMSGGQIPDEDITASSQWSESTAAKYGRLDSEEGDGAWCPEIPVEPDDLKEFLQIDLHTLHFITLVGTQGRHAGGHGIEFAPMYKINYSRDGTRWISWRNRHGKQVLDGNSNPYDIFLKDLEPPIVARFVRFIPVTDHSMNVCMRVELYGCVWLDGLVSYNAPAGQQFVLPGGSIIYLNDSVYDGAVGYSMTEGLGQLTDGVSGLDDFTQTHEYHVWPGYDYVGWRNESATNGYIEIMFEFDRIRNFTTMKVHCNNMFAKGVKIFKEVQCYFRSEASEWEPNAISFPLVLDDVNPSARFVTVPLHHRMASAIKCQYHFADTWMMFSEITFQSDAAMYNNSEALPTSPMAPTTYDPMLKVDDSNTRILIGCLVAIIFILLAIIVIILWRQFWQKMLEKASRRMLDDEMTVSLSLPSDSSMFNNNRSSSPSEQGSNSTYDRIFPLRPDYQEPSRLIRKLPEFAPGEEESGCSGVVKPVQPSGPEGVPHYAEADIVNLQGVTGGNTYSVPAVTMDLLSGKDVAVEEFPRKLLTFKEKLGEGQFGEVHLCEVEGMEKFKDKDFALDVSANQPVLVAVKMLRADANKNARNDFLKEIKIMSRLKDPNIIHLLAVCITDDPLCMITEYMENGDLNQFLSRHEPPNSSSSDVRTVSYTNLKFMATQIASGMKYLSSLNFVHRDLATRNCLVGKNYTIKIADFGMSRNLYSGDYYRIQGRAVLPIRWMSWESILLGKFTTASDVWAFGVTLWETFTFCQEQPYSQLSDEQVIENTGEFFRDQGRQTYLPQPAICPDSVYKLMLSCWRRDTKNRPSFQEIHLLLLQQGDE
Chain of panel of human kinases (kinase named in endpoint) (Homo sapiens, UniProt Q96L34) (Q96L34 whole entry): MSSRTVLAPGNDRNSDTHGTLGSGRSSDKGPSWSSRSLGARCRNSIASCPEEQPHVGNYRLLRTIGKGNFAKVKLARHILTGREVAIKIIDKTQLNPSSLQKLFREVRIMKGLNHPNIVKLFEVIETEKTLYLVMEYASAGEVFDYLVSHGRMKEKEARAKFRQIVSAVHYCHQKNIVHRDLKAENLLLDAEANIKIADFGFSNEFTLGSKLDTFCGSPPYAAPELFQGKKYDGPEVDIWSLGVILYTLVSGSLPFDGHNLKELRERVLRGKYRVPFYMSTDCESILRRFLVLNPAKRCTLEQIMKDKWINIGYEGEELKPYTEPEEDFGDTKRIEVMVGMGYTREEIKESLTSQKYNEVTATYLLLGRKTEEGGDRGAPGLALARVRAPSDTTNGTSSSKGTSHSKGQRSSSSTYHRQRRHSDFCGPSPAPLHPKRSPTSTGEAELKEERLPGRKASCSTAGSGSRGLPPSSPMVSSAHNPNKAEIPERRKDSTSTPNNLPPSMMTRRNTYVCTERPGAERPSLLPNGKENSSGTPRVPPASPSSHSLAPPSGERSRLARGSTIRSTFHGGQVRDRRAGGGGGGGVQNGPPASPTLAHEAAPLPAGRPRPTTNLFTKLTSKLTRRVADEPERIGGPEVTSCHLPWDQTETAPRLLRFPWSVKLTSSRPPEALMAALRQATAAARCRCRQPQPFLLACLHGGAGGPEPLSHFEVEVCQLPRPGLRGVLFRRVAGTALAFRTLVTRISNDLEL
Chain of panel of human kinases (kinase named in endpoint) (Homo sapiens, UniProt Q8TDX7) (Q8TDX7 whole entry): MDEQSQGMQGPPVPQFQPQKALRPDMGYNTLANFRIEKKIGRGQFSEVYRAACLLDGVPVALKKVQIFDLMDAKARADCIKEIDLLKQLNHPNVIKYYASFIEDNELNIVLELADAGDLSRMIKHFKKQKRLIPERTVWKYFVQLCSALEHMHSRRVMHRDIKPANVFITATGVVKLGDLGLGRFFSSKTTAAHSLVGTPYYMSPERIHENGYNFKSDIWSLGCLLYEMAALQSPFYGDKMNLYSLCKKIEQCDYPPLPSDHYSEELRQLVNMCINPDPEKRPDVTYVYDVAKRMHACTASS
Chain of panel of human kinases (kinase named in endpoint) (Homo sapiens, UniProt P00533) (P00533 25-1210): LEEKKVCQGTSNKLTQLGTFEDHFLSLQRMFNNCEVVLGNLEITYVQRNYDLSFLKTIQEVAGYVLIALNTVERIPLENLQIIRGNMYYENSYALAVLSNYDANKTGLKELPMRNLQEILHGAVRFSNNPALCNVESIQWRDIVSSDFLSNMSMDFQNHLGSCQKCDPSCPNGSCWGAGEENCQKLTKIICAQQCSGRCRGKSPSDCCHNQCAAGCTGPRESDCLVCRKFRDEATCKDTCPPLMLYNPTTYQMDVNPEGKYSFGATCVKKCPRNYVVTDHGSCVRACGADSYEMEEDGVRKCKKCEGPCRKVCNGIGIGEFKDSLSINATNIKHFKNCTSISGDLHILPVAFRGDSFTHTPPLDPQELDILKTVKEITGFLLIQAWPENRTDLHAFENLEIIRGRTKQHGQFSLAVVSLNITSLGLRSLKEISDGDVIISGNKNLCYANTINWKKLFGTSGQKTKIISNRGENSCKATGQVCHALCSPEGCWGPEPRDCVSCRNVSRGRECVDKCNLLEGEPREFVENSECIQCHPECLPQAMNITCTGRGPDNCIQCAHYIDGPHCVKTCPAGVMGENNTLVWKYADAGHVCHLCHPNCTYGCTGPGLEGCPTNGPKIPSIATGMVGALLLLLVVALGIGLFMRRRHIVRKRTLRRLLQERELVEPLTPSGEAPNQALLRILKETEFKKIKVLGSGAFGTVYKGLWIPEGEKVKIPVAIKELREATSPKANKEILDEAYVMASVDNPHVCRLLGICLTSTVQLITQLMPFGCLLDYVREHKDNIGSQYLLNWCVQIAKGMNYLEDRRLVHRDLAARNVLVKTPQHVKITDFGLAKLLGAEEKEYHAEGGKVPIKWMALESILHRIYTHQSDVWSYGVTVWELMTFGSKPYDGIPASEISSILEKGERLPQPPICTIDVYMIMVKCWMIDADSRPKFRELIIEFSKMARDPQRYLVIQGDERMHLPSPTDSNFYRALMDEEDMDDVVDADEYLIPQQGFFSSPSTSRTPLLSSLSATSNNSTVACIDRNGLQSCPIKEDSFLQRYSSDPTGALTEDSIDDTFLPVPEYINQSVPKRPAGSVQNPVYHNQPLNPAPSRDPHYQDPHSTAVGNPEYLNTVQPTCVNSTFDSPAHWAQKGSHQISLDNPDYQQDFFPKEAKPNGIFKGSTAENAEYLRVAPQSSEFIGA
Chain of panel of human kinases (kinase named in endpoint) (Homo sapiens, UniProt Q8IYT8) (Q8IYT8 whole entry): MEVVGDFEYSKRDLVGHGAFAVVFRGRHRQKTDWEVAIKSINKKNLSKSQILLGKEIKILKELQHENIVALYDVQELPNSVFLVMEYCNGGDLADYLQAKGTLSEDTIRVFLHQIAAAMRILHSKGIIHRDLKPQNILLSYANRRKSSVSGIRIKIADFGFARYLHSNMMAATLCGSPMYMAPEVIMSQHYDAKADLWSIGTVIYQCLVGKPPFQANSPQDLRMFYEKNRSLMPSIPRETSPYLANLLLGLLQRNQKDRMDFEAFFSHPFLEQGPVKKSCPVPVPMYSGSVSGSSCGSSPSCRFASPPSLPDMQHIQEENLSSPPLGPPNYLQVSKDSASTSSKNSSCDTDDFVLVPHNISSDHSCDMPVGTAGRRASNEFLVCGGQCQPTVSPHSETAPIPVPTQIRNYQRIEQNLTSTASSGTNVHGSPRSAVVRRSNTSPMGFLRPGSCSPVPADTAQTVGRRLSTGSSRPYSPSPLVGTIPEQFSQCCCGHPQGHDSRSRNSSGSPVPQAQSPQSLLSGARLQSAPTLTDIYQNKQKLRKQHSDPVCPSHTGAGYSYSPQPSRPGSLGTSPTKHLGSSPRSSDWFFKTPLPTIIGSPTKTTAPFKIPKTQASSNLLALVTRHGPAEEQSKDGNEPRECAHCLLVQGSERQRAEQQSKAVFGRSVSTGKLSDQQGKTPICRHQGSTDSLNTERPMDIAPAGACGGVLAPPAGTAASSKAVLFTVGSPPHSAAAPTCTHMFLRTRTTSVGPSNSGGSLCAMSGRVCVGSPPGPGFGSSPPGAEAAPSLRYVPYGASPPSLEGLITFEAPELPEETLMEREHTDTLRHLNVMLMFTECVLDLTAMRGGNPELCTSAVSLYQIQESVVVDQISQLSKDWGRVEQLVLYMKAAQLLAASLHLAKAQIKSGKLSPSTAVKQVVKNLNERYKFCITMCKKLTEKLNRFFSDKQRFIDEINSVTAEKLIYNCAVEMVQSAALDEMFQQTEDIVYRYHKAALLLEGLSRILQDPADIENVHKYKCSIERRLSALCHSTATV
Chain of panel of human kinases (kinase named in endpoint) (Homo sapiens, UniProt P49759) (P49759 whole entry): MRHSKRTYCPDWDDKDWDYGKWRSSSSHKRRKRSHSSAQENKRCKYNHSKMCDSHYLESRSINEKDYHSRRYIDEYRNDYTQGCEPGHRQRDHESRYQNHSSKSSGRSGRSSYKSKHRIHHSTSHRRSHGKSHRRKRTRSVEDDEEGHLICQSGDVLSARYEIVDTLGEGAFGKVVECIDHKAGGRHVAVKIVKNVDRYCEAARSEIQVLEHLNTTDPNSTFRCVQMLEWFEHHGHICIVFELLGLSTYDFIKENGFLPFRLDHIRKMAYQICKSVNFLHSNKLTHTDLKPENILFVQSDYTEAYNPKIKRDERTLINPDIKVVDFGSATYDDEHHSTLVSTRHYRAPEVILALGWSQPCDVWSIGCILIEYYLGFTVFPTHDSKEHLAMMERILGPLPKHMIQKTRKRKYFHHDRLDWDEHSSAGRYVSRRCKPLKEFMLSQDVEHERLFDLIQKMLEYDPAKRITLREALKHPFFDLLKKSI
Chain of panel of human kinases (kinase named in endpoint) (Homo sapiens, UniProt Q9HC98) (Q9HC98 whole entry): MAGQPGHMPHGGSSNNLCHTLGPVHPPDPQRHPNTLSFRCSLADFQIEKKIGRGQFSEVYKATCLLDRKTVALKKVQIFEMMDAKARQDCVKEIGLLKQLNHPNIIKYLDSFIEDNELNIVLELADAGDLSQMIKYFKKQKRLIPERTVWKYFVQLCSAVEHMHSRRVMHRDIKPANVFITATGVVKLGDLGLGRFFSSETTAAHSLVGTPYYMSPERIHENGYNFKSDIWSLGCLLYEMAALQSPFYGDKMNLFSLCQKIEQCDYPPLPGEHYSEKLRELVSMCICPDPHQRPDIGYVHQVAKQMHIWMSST

CC(C)C(=O)Nc1nc2cc(-c3ccc4c(c3)c(C(=O)NC(C)c3ccccc3)cn4C)ccn2n1 (centres unmarked) [RI-962]
activity at 10 µM [1]: 102%
activity at 10 µM [2]: 115%
activity at 10 µM [3]: 104%
activity at 10 µM [4]: 135%
activity at 10 µM [5]: 94%
activity at 10 µM [6]: 64%
activity at 10 µM [7]: 97%
activity at 10 µM [8]: 97%
activity at 10 µM [9]: 80%
activity at 10 µM [10]: 109%
activity at 10 µM [11]: 126%
activity at 10 µM [12]: 97%
activity at 10 µM [13]: 88%
activity at 10 µM [14]: 104%
activity at 10 µM [15]: 92%
activity at 10 µM [16]: 92%
activity at 10 µM [17]: 96%
activity at 10 µM [18]: 120%
activity at 10 µM [19]: 126%
activity at 10 µM [20]: 94%
activity at 10 µM [21]: 76%
activity at 10 µM [22]: 89%
activity at 10 µM [23]: 85%
activity at 10 µM [24]: 102%
activity at 10 µM [25]: 113%
activity at 10 µM [26]: 99%
